This is an account of results in patent US20260335388A1, “COMBINATION THERAPIES WITH ONCOLYTIC ADENOVIRUS AND TOPOISOMERASE I INHIBITORS OR PRODRUGS THEREOF” (priority 2022, published 2026).

Experiment [1] concerns HSJD-RBT-2 retinoblastoma cells. Put plainly: Antiproliferative activity (MTS), HSJD-RBT-2. Type of experiment: cell-based. The settings on record: Homo sapiens.
Experiment [2] has as its system HSJD-ES-033 Ewing sarcoma. Briefly: Antitumor activity in Ewing sarcoma PDX HSJD-ES-033. Type of experiment: in vivo, mouse. The settings on record: single treatment (FIG. 24E,G). As to the method: Patient-derived xenograft (PDX) of Ewing sarcoma (pediatric solid tumor) were implanted subcutaneously into athymic nude mice. Tumor model was HSJD-ES-033. Upon engraftment (tumor volumes ranging 100-500 mm^3), combination treatment in which topotecan was administered systemically (intraperitoneal) at a concentration of 0.6 mg/kg/day, on Days 1, 2, 3, 4 and 5, and a single dose of 3×10^9 vp/tumor VCN-01 was administered intratumorally on Day 1, was compared to either of the treatments alone.
Antitumor activity in extracranial pediatric solid tumors. 5-10 mm^3 fresh fragments of Ewing sarcoma or neuroblastoma PDX were implanted in both flanks of mice. Upon s.c. engraftment (tumor volume 150-200 mm^3), mice received topotecan (0.6 mg/kg, i.p., days 1-5), VCN-01 (3×10^9 vp in 20 µL vehicle, intratumoral, day 1), or the combination. In two additional groups, an alternative topoisomerase 1 inhibitor, irinotecan (10 mg/kg, i.p., on days 1-5) we used in place of topotecan. Upon completion of treatments, tumor volumes were followed until endpoint (1500 mm^3), or until day 80.

The test system of experiment [3] is retinoblastoma cells. Type of experiment: cell-based. The settings on record: infection of retinoblastoma cells with VCN-01.
In experiment [4] the test system is Y79 cells. Briefly: Viability of Y79 cells by treatment sequence. Type of experiment: cell-based. On the procedure:
To address the sequence of the treatments on cell viability and apoptosis markers, topotecan (2 μM) and VCN-01 at 50 MOI (concentration sufficient to achieve viral protein transduction at early time points) was incubated with the sequence “topotecan first” (three days before VCN-01) or “VCN-01 first” (three days before topotecan). The experiments were controlled by adding culture medium instead of the second treatment.

Experiment [5] has as its system E2F-1 and cyclin E1. Put plainly: Immunoblot of E2F-1 and cyclin E1 in neuroblastoma and Ewing sarcoma cells. The experiment is classed as cell-based. The conditions noted are these: in vitro, up to 48 h with topotecan (FIG. 24C). (In general: Immunoblotting shows a protein as a band on a membrane.)
For experiment [6], the system named is Y79 xenografts. Put plainly: Ocular survival, Y79 intraocular xenografts (first study). The experiment is classed as in vivo, mouse. The conditions noted are these: control 37 days; P vs control: combination 0.0005, topotecan 0.062, standard of care 0.674, VCN-01 1 (FIG. 20A).
Description: Antitumor activity in retinoblastoma. […] For ocular tumors, treatments were started at day 8 after inoculation (when tumors were appreciable by fundus examination).
In a first study, one dose of VCN-01 (3×10^8 vp in 2 μL vehicle, intravitreal, day 15), therapeutic schedules of topotecan or standard of care (SoC) retinoblastoma chemotherapy, or their combinations, was administered in the Y79 intraocular xenograft. For topotecan, mice received 0.6 mg/kg i.p. injections on days 8-12 and 29-33. […] 40 mg/kg, on days 8 and 29, and etoposide 6 mg/kg, on days 8-10 and 29-31.
For experiment [7], the system named is Y79 retinoblastoma cells. Put plainly: cells. The experiment is classed as cell-based.
Where [8] appears, read: read-out: IC50, Topotecan single agent.
The mark [9] stands for this setting: read-out: IC50, Topotecan with VCN-01 (10 MOI).

pIC50: −log10 of the molar value. Read-outs that look alike come from different tables or passages of the source.

Turning to `CC[C@@]1(O)C(=O)OCc2c1cc1n(c2=O)Cc2cc3c(CN(C)C)c(O)ccc3nc2-1` [Topotecan, topotecan], the negative-log IC50 (pIC50) in experiment [1] (setting [8]) was 8.13; in experiment [1] (setting [9]), 7.29; in experiment [7] (setting [8]), 7.52; in experiment [7] (setting [9]), 6.05. Also, the “response of xenograft to single treatment” value in experiment [2] is given as “highly resistant”. Also, the “cell sensitivity to drug after VCN-01 infection” value in experiment [3] is reported as “decreased cell sensitivity”. For the same molecule, in experiment [4] (cells pre-exposed to topotecan before VCN-01 infection (FIG. 13D)), the “antiproliferative activity, topotecan first” value is reported as “sensitive to the antiproliferative activity of the drug”. In addition, the “antiproliferative activity, VCN-01 first” value in experiment [4] (previous VCN-01 infection (FIG. 13D)) is given as “partially abolished the activity of the drug”. In experiment [5], the “expression of E2F-1 and cyclin E1” value was “overexpression of E2F-1 and cyclin E1”. The median ocular survival in experiment [6] was found to be 58 days.

The pIC50 is −log10 of the IC50, conventionally taken in molar units.
